{"source": "paper PMC7558282", "about": "“The Anticancer Activity for the Bumetanide-Based Analogs via Targeting the Tumor-Associated Membrane-Bound Human Carbonic Anhydrase-IX Enzyme” (Pharmaceuticals, 2020)", "key": {"A-498 cells [1]": {"tested_on": "A-498 cells", "assay": "Annexin V/PI apoptotic assay in A-498", "format": "cell-based, human", "conditions": "6 µM, 48 h; control 1.3%", "procedure": "(§1) The efficient antiproliferative activity of compound 9c on the kidney carcinoma A-498 cell line (Table 2) prompted a further investigation of its mechanistic growth inhibitory action. Thus, the impact of bumetanide analog 9c at 6 µM for 48 h on cell cycle distribution and induction of apoptosis in A-498 cells was next explored. […] Analysis of apoptosis was performed to determine the mode of cell death induced by 9c in A-498 cells. Compound 9c induced both early and late apoptosis in A-498 cells at 6 µM when compared to the untreated control cells (p < 0.01 and p < 0.001, respectively) (Figure 5A). […]\nFigure 5 Compound 9c potently induces apoptosis in kidney carcinoma cell line A-498 cells (Annexin V/PI FACS). (A) Effect of compound 9c in A-498 cells analyzed by flow cytometry after double staining of the cells with Annexin-V-FITC and PI. […] (B) Quantitative analysis of apoptosis. […]\n(§2) A-498 Cells were seeded at a density of 1 × 10^5 cells/well in 24-well plates and treated with compound 9c (6 µM) for 48 h. […] The DNA content of cells (10,000 cells/experimental group) was analyzed by flow cytometer at 488 nm using a FACSCalibur flow cytometer (BD Biosciences, San Jose, CA, USA) and all data were recorded and analyzed using the CellQuest Software (Becton-Dickinson Biosciences, San Jose, CA, USA). […]"}, "A-498 cells [2]": {"tested_on": "A-498 cells", "assay": "cell cycle analysis (PI, flow cytometry) in A-498", "format": "cell-based, human", "conditions": "6 µM, 48 h", "procedure": "as §1\nFigure 4 (A) Effect of compound 9c on the cell cycle and apoptosis in kidney carcinoma cell line A-498. […] Cells were then fixed, stained with propidium iodide (PI), and analyzed by flow cytometry. […] (B) Quantitative analysis of 4N (G2/M), 2N (G0G1), > 2N (S), and < 2N (sub-G1). DNA content was determined with CellQuest software. […]\nas §2"}}, "data": [{"smiles": "CCCCNc1cc(-c2n[nH]c(=S)n2-c2ccc(Br)cc2)cc(S(N)(=O)=O)c1Oc1ccccc1", "note": "[Compound 9c]", "values": [{"measurement": "Annexin V-staining positive cells (total apoptotic cells)", "setting": "A-498 cells [1]", "value": 25.5, "unit": "%"}, {"measurement": "cells in the sub-G1 phase", "setting": "A-498 cells [2]; control 1.3%", "value": 25.5, "unit": "%"}, {"measurement": "cell population at the G2/M stage", "setting": "A-498 cells [2]; untreated control 10.8%", "value": 48.6, "unit": "%"}]}]}
